We go through seven molecules from PMC7688046 (ACS Pharmacology & Translational Science, 2020).

A word on the IC50: it is the concentration that inhibits the measured activity by half. Lower therefore signals higher potency.

One experiment deals with cytopathic effects (CPE). The settings on record: at current writing; ref NCATS OpenData Portal; cited from earlier work.
The test system of another experiment is ACE2. To be noted: at current writing; ref NCATS OpenData Portal; cited from earlier work.
The target in experiment [1] is SARS-CoV-2 spike protein RBD (RBD-Fc) binding to human ACE2 (ACE2-His-Avi) (Homo sapiens, UniProt Q9BYF1). As to the kind of experiment: biochemical. Also on record: species or system human ACE2 / SARS-CoV-2 spike.
Sequence of SARS-CoV-2 spike protein RBD (RBD-Fc) binding to human ACE2 (ACE2-His-Avi) (Q9BYF1 18-740): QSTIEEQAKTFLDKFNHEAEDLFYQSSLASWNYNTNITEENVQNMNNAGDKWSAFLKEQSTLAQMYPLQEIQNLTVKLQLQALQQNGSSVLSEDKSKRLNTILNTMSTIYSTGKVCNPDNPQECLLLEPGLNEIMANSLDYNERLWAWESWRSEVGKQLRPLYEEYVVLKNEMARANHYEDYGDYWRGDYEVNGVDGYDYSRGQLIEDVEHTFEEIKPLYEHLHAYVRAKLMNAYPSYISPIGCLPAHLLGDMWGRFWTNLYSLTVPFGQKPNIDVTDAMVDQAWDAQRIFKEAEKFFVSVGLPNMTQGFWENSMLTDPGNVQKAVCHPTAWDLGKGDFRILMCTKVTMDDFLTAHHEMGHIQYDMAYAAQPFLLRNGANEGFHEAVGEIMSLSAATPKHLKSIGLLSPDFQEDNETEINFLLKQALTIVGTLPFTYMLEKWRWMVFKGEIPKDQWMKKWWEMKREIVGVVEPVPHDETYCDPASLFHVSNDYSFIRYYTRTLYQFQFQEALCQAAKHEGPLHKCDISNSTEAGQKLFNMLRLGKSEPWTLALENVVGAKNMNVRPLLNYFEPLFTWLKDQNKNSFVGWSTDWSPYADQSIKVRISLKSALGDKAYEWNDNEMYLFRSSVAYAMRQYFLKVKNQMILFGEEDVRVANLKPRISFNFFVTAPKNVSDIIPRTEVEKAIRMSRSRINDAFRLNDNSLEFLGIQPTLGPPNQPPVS
The test system of experiment [2] is biotinylated rabbit IgG (Fc-protein A and streptavidin–biotin interactions). The experiment in a line: Biotin-IgG counterassay. To be noted: cherry-pick hit confirmation.
The subject of experiment [3] is streptavidin donor beads / biotin-BSA acceptor beads. To be noted: primary counterscreen.
The target of experiment [4] is RBD-Fc interaction with ACE2-His-Avi (Homo sapiens, UniProt Q9BYF1). It counts as binding, human ACE2 / SARS-CoV-2 spike.
Sequence of RBD-Fc interaction with ACE2-His-Avi (Q9BYF1 18-740): as above

For the molecule `O=C(O[C@@H]1O[C@@H]2COC(=O)c3cc(O)c(O)c(O)c3-c3c(cc(O)c(O)c3O)C(=O)O[C@H]([C@H]1O)[C@@H]2O)c1cc(O)c(O)c(O)c1` [Corilagin], the “activity in blocking cytopathic effects (CPE)” value in the experiment with cytopathic effects (CPE) was “no activity”. Besides, the “activity in the ACE2 enzymatic assay” value with ACE2 is listed as “weak activity”. In experiment [1], this molecule showed an IC50 of 5.5 µM. Further, the “activity in biotin-IgG counter assay” value in experiment [2] is reported as “not the biotin-IgG counter assay”. `CC(C)(O/N=C(\C(=O)N[C@@H]1C(=O)N2C(C(=O)[O-])=C(C[n+]3ccccc3)CS[C@H]12)c1csc(N)n1)C(=O)O` [ceftazidime]: in experiment [3], the “activity in the TruHits counterscreen” value is listed as “no significant activity”. In addition, the “ACE2–RBD binding inhibition in the primary AlphaLISA screen” value (from here on “ACE2–RBD binding inhibition”) in experiment [1] is given as “no significant activity”. Consider `CCOC(=O)[C@H](CCc1ccccc1)N[C@@H](C)C(=O)N1CCC[C@H]1C(=O)O` [enalapril], for which the “ACE2–RBD binding inhibition” value in experiment [1] is “none showed ACE2–RBD binding inhibition”.

Turning to `NCCCC[C@H](N[C@@H](CCc1ccccc1)C(=O)O)C(=O)N1CCC[C@H]1C(=O)O` [lisinopril], the “ACE2–RBD binding inhibition” value in experiment [1] is listed as “none showed ACE2–RBD binding inhibition”. Turning to `CCOC(=O)[C@H](CCc1ccccc1)N[C@@H](C)C(=O)N1Cc2cc(OC)c(OC)cc2C[C@H]1C(=O)O` [moexipril], the “ACE2–RBD binding inhibition” value in experiment [1] is “none showed ACE2–RBD binding inhibition”. Take `CCC(CC)COC(=O)[C@H](C)N[P@](=O)(OC[C@H]1O[C@@](C#N)(c2ccc3c(N)ncnn23)[C@H](O)[C@@H]1O)Oc1ccccc1` [remdesivir]: the “activity in the TruHits counterscreen” value in experiment [3] is “no significant activity”. Also, the “ACE2–RBD binding inhibition” value in experiment [1] was “no significant activity”.

Turning to ACE2-His, the “competition for ACE2–RBD binding, AlphaLISA signal” value in experiment [4] is given as “dose-dependent signal loss”.
